Reference: patent US4499091A, “1-Amino (or substituted amino)-1,4-dihydro-4-oxo-6-fluoro-7-heterylquinoline-3-carboxylic acids and their use as antibacterial agents” (Sterling Drug Inc., priority 1983, dated 1985)
Values after ≈ are worked out from the molar mass of the structure shown. Where two headings read alike, the source gives them in different places.

Legend:
[1] = system: Klebsiella pneumoniae 39645; test: in vivo antibacterial activity in mice infected with K. pneumoniae (PD50); parameters: species or system mouse (female) infected with Klebsiella pneumoniae
Description: (§1) The in vivo antibacterial activity of the compounds of the invention was determined in female mice, 18-20 grams each, by the following procedure:
(§2) Aqueous solutions of the compounds to be tested were prepared by dissolving the free acid form in dilute sodium hydroxide and diluting the solution with distilled water to be desired volume.
(§3) Cultures of Escherichia coli Vogel prepared in brain heart infusion broth, cultures of Klebsiella pneumoniae 39645 grown in tryptose phosphate broth with 5% rabbit serum diluted in the same broth and cultures of Pseudomonas aeruginosa MGH-2 grown on brain heart infusion agar and suspended in physiological saline, were used to infect the mice as follows:
K. pneumoniae: mice were inoculated intramuscularly in the right hind leg with 0.2 ml of the bacterial test inoculum (2.05×10^4 cells/ml).
Mice infected with K. pneumoniae were medicated at the following times: seventeen hours and one hour preinfection, six hours postinfection and twice a day for the next three days. The test compound was administered by both subcutaneous (0.2 ml) and oral (0.5 ml) routes. Deaths were recorded daily for fourteen days.
(§4) Groups of ten animals each for four or five dose levels were thus treated and the number of survivors in each group recorded. The fifty percent protective dose values (PD50) were then calculated.

Escherichia coli Vogel [2] = test: in vivo antibacterial activity in mice infected with E. coli (PD50); parameters: species or system mouse (female) infected with Escherichia coli; conditions: 168 h
Description: as §1, §2, §3
Mice infected with E. coli were medicated once (0.5 ml) one-half hour post infection, the test compound being administered by either the subcutaneous (s.c.) or oral (p.o.) route. Deaths were recorded daily for seven days.
as §4

[3] = system: Streptococcus pyogenes C203; test: in vitro antibacterial activity, serial dilution (MIC); format: cell-based; conditions: 18-20 hours static incubation, read-out: Minimal Inhibitory Concentration (MIC)
Description: (§5) The in vitro antibacterial activity of the compounds of the invention was determined by conventional serial dilution procedures. Bacterial cultures were grown in tryptose phosphate broth or brain heart infusion broth (containing heat-inactivated normal horse serum for tests with S. pyogenes) overnight at 37° C. and subsequently diluted in double strength broth to provide bacterial inocula of about 2×10^5 cells/ml. Aqueous solutions of the compounds of the invention were prepared by dissolving the free acid form in 0.5N sodium hydroxide. The solutions were diluted with sterile distilled water to 1000 mcg/ml of compound in terms of the free acid. Serial two-fold dilutions of the compound stock solutions were prepared in water and 0.5 ml of each dilution was transferred to sets of tubes, one set for each bacterial inoculum.

Proteus vulgaris 9920 = test: as above; format: cell-based; conditions: 18-20 hours static incubation, read-out: Minimal Inhibitory Concentration (MIC)
Description: as §5

[4] = system: Klebsiella pneumoniae 39645; test: as above; format: cell-based; conditions: 18-20 hours static incubation, read-out: Minimal Inhibitory Concentration (MIC)
Description: as §5

Proteus mirabilis MGH-1 = test: as above; format: cell-based; conditions: MGH1, 18-20 hours static incubation, read-out: Minimal Inhibitory Concentration (MIC)
Description: as §5

[5] = system: Pseudomonas aeruginosa MGH-2; test: as above; format: cell-based; conditions: MGH2, 18-20 hours static incubation, read-out: Minimal Inhibitory Concentration (MIC)
Description: as §5

Escherichia coli Vogel [6] = test: as above; format: cell-based; conditions: 18-20 hours static incubation, read-out: Minimal Inhibitory Concentration (MIC)
Description: as §5

[7] = system: Staphylococcus aureus Smith; test: as above; format: cell-based; conditions: 18-20 hours static incubation, read-out: Minimal Inhibitory Concentration (MIC)
Description: as §5

[8] = Klebsiella pneumoniae, 39645, sc, 336 h, mouse, K. pneumoniae, s.c., pre- and postinfection, 14 days, read-out: Protective Dose (PD50)
[9] = sc, mouse, E. coli, s.c., once one-half hour post infection, 7 days, read-out: Protective Dose (PD50)

Compound	ED50 [1, 8]	ED50 (Escherichia coli Vogel [2]; [9])	MIC [3]	MIC (Proteus vulgaris 9920)	MIC [4]	MIC (Proteus mirabilis MGH-1)	MIC [5]	MIC (Escherichia coli Vogel [6])	MIC [7]	ED50 ([1]; Klebsiella pneumoniae, 39645, 336 h, mouse, K. pneum., route not stated, read-out: fifty percent protective dose)	ED50 (Escherichia coli Vogel [2]; mouse, E. coli, route not stated, read-out: fifty percent protective dose)	ED50 ([1]; Klebsiella pneumoniae, 39645, sc, 336 h, read-out: Protective Dose (PD50))	ED50 (Escherichia coli Vogel [2]; sc, read-out: Protective Dose (PD50))	ED50 ([1]; Klebsiella pneumoniae, 39645, po, 336 h, mouse, K. pneumoniae, p.o., pre- and postinfection, 14 days, read-out: Protective Dose (PD50))
CNn1cc(C(=O)O)c(=O)c2cc(F)c(N3CCCNCC3)cc21 [Example 19, 6-Fluoro-7-(hexahydro-1H-1,4-diazapin-1-yl)-1,4-dihydro-1-methylamino-4-oxo-3-quinolinecarboxylic acid]	> 50 mg/kg	2.5 mg/kg	31.3 µg/mL (≈ 93.6 µM)	1 µg/mL (≈ 2.99 µM)	15.6 µg/mL (≈ 46.7 µM)	1.95 µg/mL (≈ 5.83 µM)	–	–	–	–	–	–	–	–
CN1CCN(c2cc3c(cc2F)c(=O)c(C(=O)O)cn3N)CC1 [Example 3, 1-Amino-6-fluoro-1,4-dihydro-4-oxo-7-(4-methyl-1-piperazinyl)-3-quinolinecarboxylic acid]	30.5 mg/kg	3.13 mg/kg	62.5 µg/mL (≈ 195 µM)	1 µg/mL (≈ 3.12 µM)	2 µg/mL (≈ 6.24 µM)	2 µg/mL (≈ 6.24 µM)	15.6 µg/mL (≈ 48.7 µM)	2 µg/mL (≈ 6.24 µM)	–	–	–	–	–	–
CCOC(=O)c1cn(NC)c2cc(N3CCN(C)CC3)c(F)cc2c1=O [Example 9, Ethyl 6-fluoro-1,4-dihydro-1-methylamino-7-(4-methyl-1-piperazinyl)-4-oxo-3-quinolinecarboxylate]	> 200 mg/kg	4.4 mg/kg	–	31.3 µg/mL (≈ 86.4 µM)	62.5 µg/mL (≈ 172 µM)	12.5 µg/mL (≈ 34.5 µM)	–	62.5 µg/mL (≈ 172 µM)	–	–	–	–	–	–
CNn1cc(C(=O)O)c(=O)c2cc(F)c(N3CCC(O)CC3)cc21 [Example 17, 6-Fluoro-1,4-dihydro-7-(4-hydroxy-1-piperidinyl)-1-methylamino-4-oxo-3-quinolinecarboxylic acid]	200 mg/kg	12.5 mg/kg	31.3 µg/mL (≈ 93.3 µM)	0.125 µg/mL (≈ 0.373 µM)	–	–	–	1.95 µg/mL (≈ 5.82 µM)	1.95 µg/mL (≈ 5.82 µM)	–	–	–	–	–
CCCN1CCN(c2cc3c(cc2F)c(=O)c(C(=O)O)cn3NC)CC1 [Example 11, 6-Fluoro-1,4-dihydro-1-methylamino-4-oxo-7-(4-propyl-1-piperazinyl)-3-quinolinecarboxylic acid]	81.5 mg/kg	14.8 mg/kg	–	0.25 µg/mL (≈ 0.69 µM)	0.5 µg/mL (≈ 1.38 µM)	1 µg/mL (≈ 2.76 µM)	–	0.25 µg/mL (≈ 0.69 µM)	1.95 µg/mL (≈ 5.38 µM)	–	–	–	–	–
CNn1cc(C(=O)O)c(=O)c2cc(F)c(N3CCOCC3)cc21 [Example 13, 6-Fluoro-1,4-dihydro-1-methylamino-7-(4-morpholinyl)-4-oxo-3-quinolinecarboxylic acid]	200 mg/kg	16.3 mg/kg	15.6 µg/mL (≈ 48.6 µM)	0.125 µg/mL (≈ 0.389 µM)	1.95 µg/mL (≈ 6.07 µM)	–	15.6 µg/mL (≈ 48.6 µM)	0.5 µg/mL (≈ 1.56 µM)	1 µg/mL (≈ 3.11 µM)	–	–	–	–	–
CN1CCN(c2cc3c(cc2F)c(=O)c(C(=O)O)cn3N(C)C=O)CC1 [Example 23, 6-Fluoro-1-(N-formylmethylamino)-1,4-dihydro-7-(4-methyl-1-piperazinyl)-4-oxo-3-quinolinecarboxylic acid]	> 200 mg/kg	10.4 mg/kg	–	1 µg/mL (≈ 2.76 µM)	1.95 µg/mL (≈ 5.38 µM)	–	–	1.95 µg/mL (≈ 5.38 µM)	15.6 µg/mL (≈ 43.1 µM)	–	–	–	–	–
CCCNn1cc(C(=O)O)c(=O)c2cc(F)c(Cl)cc21 [7-Chloro-6-fluoro-1,4-dihydro-4-oxo-1-propylamino-3-quinolinecarboxylic acid]	–	–	15.6 µg/mL (≈ 52.2 µM)	3.9 µg/mL (≈ 13.1 µM)	31.3 µg/mL (≈ 105 µM)	–	–	15.6 µg/mL (≈ 52.2 µM)	15.6 µg/mL (≈ 52.2 µM)	–	–	–	–	–
CNn1cc(C(=O)O)c(=O)c2cc(F)c(Cl)cc21 [7-Chloro-6-fluoro-1,4-dihydro-1-methylamino-4-oxo-3-quinolinecarboxylic acid]	–	–	–	–	1.95 µg/mL (≈ 7.2 µM)	1 µg/mL (≈ 3.69 µM)	–	1 µg/mL (≈ 3.69 µM)	–	186 mg/kg	56 mg/kg	–	–	–
CNn1cc(C(=O)O)c(=O)c2cc(F)c(N3CC[N+](C)([O-])CC3)cc21 [4'-oxide]	–	–	–	–	32 µg/mL (≈ 91.3 µM)	32 µg/mL (≈ 91.3 µM)	–	16 µg/mL (≈ 45.7 µM)	–	–	–	–	–	–
CNn1cc(C(=O)O)c(=O)c2cc(F)c(N3CCCCC3)cc21 [Example 15, 6-Fluoro-1,4-dihydro-1-methylamino-4-oxo-7-(1-piperidinyl)-3-quinolinecarboxylic acid]	> 200 mg/kg	> 200 mg/kg	–	0.5 µg/mL (≈ 1.57 µM)	–	–	–	–	1.95 µg/mL (≈ 6.11 µM)	–	–	–	–	–
CNn1cc(C(=O)O)c(=O)c2cc(F)c(N3CCN(C(C)=O)CC3)cc21 [Example 14, 7-(4-Acetyl-1-piperazinyl)-6-fluoro-1,4-dihydro-1-methylamino-4-oxo-3-quinolinecarboxylic acid]	100 mg/kg	100 mg/kg	31.3 µg/mL (≈ 86.4 µM)	1.95 µg/mL (≈ 5.38 µM)	–	15.6 µg/mL (≈ 43.1 µM)	62.5 µg/mL (≈ 172 µM)	15.6 µg/mL (≈ 43.1 µM)	–	–	–	–	–	–
CCNn1cc(C(=O)O)c(=O)c2cc(F)c(N3CCN(C)CC3)cc21 [Example 5, 1-Ethylamino-6-fluoro-1,4-dihydro-7-(4-methyl-1-piperazinyl)-4-oxo-3-quinolinecarboxylic acid]	90 mg/kg	4.1 mg/kg	31.3 µg/mL (≈ 89.8 µM)	0.25 µg/mL (≈ 0.718 µM)	0.5 µg/mL (≈ 1.44 µM)	–	–	0.5 µg/mL (≈ 1.44 µM)	–	–	–	–	–	–
Nn1cc(C(=O)O)c(=O)c2cc(F)c(N3CCNCC3)cc21 [Example 2, 1-Amino-6-fluoro-1,4-dihydro-4-oxo-7-(1-piperazinyl)-3-quinolinecarboxylic acid]	–	–	–	–	–	–	62.5 µg/mL (≈ 204 µM)	–	31.3 µg/mL (≈ 102 µM)	–	–	> 200 mg/kg	> 200 mg/kg	–
CNn1cc(C(=O)O)c(=O)c2cc(F)c(N3CCN(C)CC3)cc21 [Example 1, 6-Fluoro-1,4-dihydro-1-methylamino-7-(4-methyl-1-piperazinyl)-4-oxo-3-quinolinecarboxylic acid]	8.8 mg/kg	–	–	0.125 µg/mL (≈ 0.374 µM)	0.25 µg/mL (≈ 0.748 µM)	0.5 µg/mL (≈ 1.5 µM)	1 µg/mL (≈ 2.99 µM)	0.25 µg/mL (≈ 0.748 µM)	–	–	–	–	–	10.6 mg/kg
CN1CCN(c2cc3c(cc2F)c(=O)c(C(=O)O)cn3N(C)C)CC1 [Example 7, 6-Fluoro-1-dimethylamino-1,4-dihydro-7-(4-methyl-1-piperazinyl)-4-oxo-3-quinolinecarboxylic acid]	29 mg/kg	1.66 mg/kg	31.3 µg/mL (≈ 89.8 µM)	0.12 µg/mL (≈ 0.344 µM)	2 µg/mL (≈ 5.74 µM)	2 µg/mL (≈ 5.74 µM)	2 µg/mL (≈ 5.74 µM)	0.5 µg/mL (≈ 1.44 µM)	–	–	–	–	–	–
CNn1cc(C(=O)O)c(=O)c2cc(F)c(N3CCCC(O)C3)cc21 (centres unmarked) [Example 18, 6-Fluoro-1,4-dihydro-7-(3-hydroxy-1-piperidinyl)-1-methylamino-4-oxo-3-quinolinecarboxylic acid]	> 200 mg/kg	38 mg/kg	15.6 µg/mL (≈ 46.5 µM)	0.25 µg/mL (≈ 0.746 µM)	–	–	31.3 µg/mL (≈ 93.3 µM)	–	1.95 µg/mL (≈ 5.82 µM)	–	–	–	–	–
CNn1cc(C(=O)O)c(=O)c2cc(F)c(N3CCCC3)cc21 [Example 16, 6-Fluoro-1,4-dihydro-1-methylamino-4-oxo-7-(1-pyrrolidinyl)-3-quinolinecarboxylic acid]	> 200 mg/kg	> 200 mg/kg	–	0.5 µg/mL (≈ 1.64 µM)	–	–	–	1 µg/mL (≈ 3.28 µM)	0.5 µg/mL (≈ 1.64 µM)	–	–	–	–	–
CCN1CCN(c2cc3c(cc2F)c(=O)c(C(=O)O)cn3NC)CC1 [Example 8, 7-(4-Ethyl-1-piperazinyl)-6-fluoro-1,4-dihydro-1-methylamino-4-oxo-3-quinolinecarboxylic acid]	15.1 mg/kg	1.4 mg/kg	–	0.25 µg/mL (≈ 0.718 µM)	0.5 µg/mL (≈ 1.44 µM)	1 µg/mL (≈ 2.87 µM)	2 µg/mL (≈ 5.74 µM)	0.5 µg/mL (≈ 1.44 µM)	1 µg/mL (≈ 2.87 µM)	–	–	–	–	–
C=CCNn1cc(C(=O)O)c(=O)c2cc(F)c(N3CCN(C)CC3)cc21 [Example 12, 6-Fluoro-1,4-dihydro-7-(4-methyl-1-piperazinyl)-4-oxo-1-(2-propenylamino)-3-quinolinecarboxylic acid]	141 mg/kg	18.9 mg/kg	62.5 µg/mL (≈ 173 µM)	1 µg/mL (≈ 2.77 µM)	1.95 µg/mL (≈ 5.41 µM)	–	15.6 µg/mL (≈ 43.3 µM)	1 µg/mL (≈ 2.77 µM)	–	–	–	–	–	–
